# Literature values, collected in US20230149600A1, “COLLAGEN-BASED DEVICE HAVING ANTIFUNGAL PROPERTIES” (AROA BIOSURGERY LIMITED, priority 2016, published 2023).
# Assays:
# Candida albicans = settings: 5% (50 mg/mL) doxycycline solution
# [1] = system: fungal spores of the genera Aspergillus, Penicillium and Curvularia; settings: called "moderate" activity
# C. albicans = settings: 20 strains of C. albicans
# C. albicans biofilms = settings: doxycycline concentrations >0.512 mg/mL; not correlated with fungicidal efficacy
substance,measurement,setting,value
Doxycycline,antifungal effect relative to other solutions,Candida albicans,more active than a 17% EDTA solution but less active than a 2.5% NaOCl solution or a 0.2% chlorhexidine gluconate solution
same,inhibition of fungal spore germination,[1],50-70%
same,MIC range,C. albicans,640 to 1280 µg/mL
same,reduction in metabolic activity of C. albicans biofilms,C. albicans biofilms,≥ 80%
